Patent publication US3965109A, “Certain aryl amino pyridines” (priority 1971, dated 1976)

What was measured:
Streptomyces scabies = experiment: Antibacterial agar test (B7); format: cell-based; conditions: 50 ppm; 5 days
Pseudomonas syringae = experiment: Antibacterial agar test (B6); format: cell-based; conditions: 50 ppm; 5 days
[1] = tested on: Tetranychus telarius (red spider mites, adults); experiment: Pest toxicity test; format: in vivo; conditions: 0.1% by weight; French bean; 3 days
[2] = tested on: Plutella maculipennis (diamond back moth larvae); experiment: Pest toxicity test; format: in vivo; conditions: in vivo
Lettuce = experiment: Herbicidal test, pre- and post-emergence; format: in vivo; conditions: 10 lb/acre (11.2 kg/ha); scale 0 (no effect) to 3 (complete kill)
Oat = experiment: Further herbicidal test, various rates; format: in vivo; conditions: 5 lb/acre; scale 0 to 5 (complete kill)
Onion = experiment: Further herbicidal test, various rates; format: in vivo; conditions: 5 lb/acre; scale 0 to 5 (complete kill)
Rice = experiment: Further herbicidal test, various rates; format: in vivo; conditions: 5 lb/acre; scale 0 to 5 (complete kill)
Maize = experiment: Herbicidal test, pre- and post-emergence; format: in vivo; conditions: 10 lb/acre (11.2 kg/ha); scale 0 (no effect) to 3 (complete kill)
Pea = experiment: Further herbicidal test, various rates; format: in vivo; conditions: 5 lb/acre; scale 0 to 5 (complete kill)
[3] = tested on: larvae of the blowfly (Lucilia serrata); experiment: Insecticidal test on blowfly larvae on treated filter paper; format: in vivo; parameters: key: 5 represents inseccticidal activity equal to that of the known insecticide; 6 represents activity 10 times that of the standard; conditions: scale of 1 to 6; filter paper with horse serum
[4] = tested on: Pieris brassicae (cabbage white caterpillars); experiment: Pest toxicity test; format: in vivo; conditions: 0.1% by weight, 2 days
Barley = experiment: Further herbicidal test, various rates; format: in vivo; conditions: 5 lb/acre; scale 0 to 5 (complete kill)
[5] = tested on: Phaedon cochleariae (mustard beetles); experiment: Pest toxicity test; format: in vivo; conditions: in vivo
Tomato = experiment: Herbicidal test, pre- and post-emergence; format: in vivo; conditions: 10 lb/acre (11.2 kg/ha); scale 0 (no effect) to 3 (complete kill)
Megoura viceae = experiment: Pest toxicity test; format: in vivo; conditions: 0.1% by weight; broad bean; 2 days
Xanthomonas malvacearum = experiment: Antibacterial agar test (B3); format: cell-based; conditions: 50 ppm; 5 days
How it was run: (§1)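 Bacterial growth on nutrient agar containing 50 ppm final test compound (added from an acetone solution or suspension) was scored 5 days after multipoint inoculation, using graded ratings. Plates were dried overnight before inoculation.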

Wheat = experiment: Herbicidal test, pre- and post-emergence; format: in vivo; conditions: 10 lb/acre (11.2 kg/ha); scale 0 (no effect) to 3 (complete kill)
[6] = tested on: Agrobacterium tumifaciens; experiment: Antibacterial agar test (B1); format: cell-based; conditions: 50 ppm; 5 days
[7] = tested on: Tetranychus telarius (red spider mites, eggs); experiment: Pest toxicity test; format: in vivo; conditions: 0.1% by weight; French bean; 3 days
Sugar beet = experiment: Further herbicidal test, various rates; format: in vivo; conditions: 5 lb/acre; scale 0 to 5 (complete kill)
[8] = tested on: Aedes aegypti (mosquito adults); experiment: Pest toxicity test; format: in vivo; conditions: 0.01% by weight; plywood; 1 day
[9] = tested on: Musca domestica (houseflies); experiment: Pest toxicity test, contact test; format: in vivo; conditions: 0.1% by weight; milk/sugar; 2 days; flies sprayed directly
Erwinia carotovora = experiment: Antibacterial agar test (B4); format: cell-based; conditions: 50 ppm; 5 days
Aphis fabae = experiment: Pest toxicity test; format: in vivo; conditions: 0.1% by weight; broad bean; 2 days
[10] = tested on: Venturia inaequalis (apple); experiment: Fungicidal test against foliar disease G (foliage spray plus soil drench); format: in vivo; conditions: 100 ppm spray and drench; 21 days
Experimental: This Example illustrates the fungicidal properties of compounds used as active ingredients in the compositions of the invention. The compounds were tested against a wide variety of foliar fungal diseases of plants. In the test, a composition comprising an aqueous solution or suspension of the test compound was sprayed on to the foliage or uninfected plants; the soil in which the plants were growing was also drenched with the composition. The compositions used for spraying and drencing contained 100 parts per million (ppm.) of the test compound except where otherwise stated in the table of results below. After spraying and drenching, the plants were then exposed to infection with the diseases it was desired to control, along with control plants not treated with the compound. After a period of days, depending upon the particular disease, the extent of the disease was visually assessed, as a percentage of the disease established upon the control plants which had not been treated with the compound under test, according to the grading scheme below
In Table 2 below the names of the disease is given in the first column, and in the second column is given the time which elapsed between exposing the plants to infection and assessing the amount of disease.

[11] = tested on: Corynebacterium michiganense; experiment: Antibacterial agar test (B2); format: cell-based; conditions: 50 ppm; 5 days
How it was run: as §1

Kale = experiment: Further herbicidal test, various rates; format: in vivo; conditions: 5 lb/acre; scale 0 to 5 (complete kill)
Carrot = experiment: Further herbicidal test, various rates; format: in vivo; conditions: 5 lb/acre; scale 0 to 5 (complete kill)
Xanthomonas oryzae = format: cell-based; conditions: 50 ppm; 5 days
[12] = tested on: Aedes aegypti (mosquito larvae); experiment: Pest toxicity test; format: in vivo; conditions: 0.01% by weight; water; 1 day

N#Cc1c(F)c(F)c(Nc2c(Cl)c(F)nc(F)c2Cl)c(F)c1F [Compound 19, 4(4-Cyano-2,3,5,6-tetrafluoroanilino)-3,5-dichloro-2,6-difluoropyridine]
Antibacterial activity grading B7 (Streptomyces scabies): 3 (0 to 5) | Antibacterial activity grading B6 (Pseudomonas syringae): 3 (0 to 5) | Mortality grading (kill) [1]: 3 (3 represents over 90% kill) | Mortality grading (kill) [2]: 0 (key: O represents less than 30% kill; 1 represents 30 - 49% kill; 2 represents 60 - 90% kill; 3 represents over 90% kill; C indicates a chemosterilant effect.; A indicates an antifeeding effect.) | Damage to plants, post-emergence (Lettuce): 3 | Damage to plants, pre-emergence (Lettuce): 3 | Damage to plants, post-emergence (Oat): 0 | Damage to plants, post-emergence (Onion): 1 | Damage to plants, post-emergence (Rice): 2 | Damage to plants, post-emergence (Maize): 1 | Damage to plants, pre-emergence (Maize): 3 | Damage to plants, post-emergence (Pea): 0 | Activity relative to lindane [3]: 5 | Mortality grading (kill) [4]: 2 (2 represents 60 - 90% kill) | Damage to plants, post-emergence (Barley): 2 | Mortality grading (kill) [5]: 0 (key: O represents less than 30% kill; 1 represents 30 - 49% kill; 2 represents 60 - 90% kill; 3 represents over 90% kill; C indicates a chemosterilant effect.; A indicates an antifeeding effect.) | Damage to plants, post-emergence (Tomato): 3 | Damage to plants, pre-emergence (Tomato): 3 | Mortality grading (kill) (Megoura viceae): 3 (3 represents over 90% kill) | Antibacterial activity grading B3 (Xanthomonas malvacearum): 3 (0 to 5) | Damage to plants, post-emergence (Wheat): 2 | Damage to plants, pre-emergence (Wheat): 3 | Antibacterial activity grading B1 [6]: 3 (0 to 5) | Mortality grading (kill) [7]: 3 (3 represents over 90% kill) | Damage to plants, post-emergence (Sugar beet): 2 | Mortality grading (kill) [8]: 3 (3 represents over 90% kill) | Mortality grading (kill), contact test [9]: 3 (3 represents over 90% kill) | Antibacterial activity grading B4 (Erwinia carotovora): 3 (0 to 5) | Mortality grading (kill) (Aphis fabae): 3 (3 represents over 90% kill) | Amount of disease grading, disease G [10]: 3 (0 to 5) | Antibacterial activity grading B2 [11]: 3 (0 to 5) | Damage to plants, post-emergence (Kale): 3 | Damage to plants, post-emergence (Carrot): 0 | Antibacterial activity grading B5 (Xanthomonas oryzae): 3 (0 to 5) | Mortality grading (kill) [12]: 3 (3 represents over 90% kill)
